Experimental data reported in patent publication US4939133A, “N-substituted-2-hydroxy-α-oxo-benzeneacetamides and pharmaceutical compositions having activity as modulators of the arachidonic acid cascade” (Warner-Lambert Company, priority 1985, dated 1990).

Biological target: T1, human leukocyte 5-lipoxygenase (Homo sapiens, UniProt P09917)
T1 construct: endogenous in cells; host or cells: leukocytes from fresh blood of normal adult men
T1 sequence (P09917 1-674): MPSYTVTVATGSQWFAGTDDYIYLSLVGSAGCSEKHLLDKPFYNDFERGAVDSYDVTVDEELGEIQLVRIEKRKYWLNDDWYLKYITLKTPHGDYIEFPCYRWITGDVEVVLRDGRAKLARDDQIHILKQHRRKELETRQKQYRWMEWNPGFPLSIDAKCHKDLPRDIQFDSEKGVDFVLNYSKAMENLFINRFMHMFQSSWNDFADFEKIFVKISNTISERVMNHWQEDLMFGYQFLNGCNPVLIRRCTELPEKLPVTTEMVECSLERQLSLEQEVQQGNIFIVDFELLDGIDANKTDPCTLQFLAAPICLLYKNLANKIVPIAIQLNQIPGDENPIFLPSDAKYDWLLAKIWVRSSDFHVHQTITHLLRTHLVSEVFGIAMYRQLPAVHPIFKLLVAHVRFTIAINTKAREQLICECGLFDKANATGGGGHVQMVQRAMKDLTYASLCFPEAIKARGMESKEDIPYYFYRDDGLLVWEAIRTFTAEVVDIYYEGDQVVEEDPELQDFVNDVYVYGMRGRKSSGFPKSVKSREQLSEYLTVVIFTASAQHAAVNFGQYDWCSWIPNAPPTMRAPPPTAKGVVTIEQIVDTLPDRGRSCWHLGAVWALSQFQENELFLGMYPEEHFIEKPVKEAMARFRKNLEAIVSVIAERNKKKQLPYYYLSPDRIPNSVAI
Experiment: 5-Lipoxygenase inhibition in human leukocytes, 5-HETE formation (5LOA1, 5LOA in Table 6)
Format: cell-based
Settings: 50% inhibition of 5-HETE formation, E -number means X 10^-no., read-out: IC50 (5LOA)
From the text: To Evaluate the Effect of Each Compounds as a 5-Lipoxygenase Inhibitor in Comparison to Standard Reference Agents in Human Leukocytes (5LOAl)
The purpose of this assay is to evaluate the activity of each compound as an inhibitor of human leukocyte 5-lipoxygenase.
Arachidonic acid and calcium ionophore A23187 are obtained from Sigma (St. Louis, MO). Silica gel plates, GF are obtained from Analtech (Newark, DE). Arachidonic acid, (1-^14 C) and 5-HETE (^3 H), 5-(S)-hydroxy-6-trans, 8,11,14-cis eicosatetraenoic acid, are obtained from New England Nuclear (Boston, MA). Six percent Dextran-70 in 0.9% NaCl is obtained from Cuffer Labs (Berkeley, CA).
Preparation of Leukocytes
Fresh blood from normal adult men who had not received any drugs for at least the previous five days is obtained by the Community Research Clinic (WL/PD) using venipuncture and collected into heparinized vacuotainer tubes. To every 100 ml of pooled blood is added 25 ml of dextran solution (6% dextran -70 in 0.9% sodium chloride containing 3% dextrose) and this is mixed gently in a plastic cylinder. The mixture is left to stand at room temperature for at least 90 minutes. The upper layer which is rich in leukocytes and platelets is then carefully decanted into 50 ml plastic tubes and centrifuged at about 100×g for eight minutes in and IEC centrifuge and rotor number 269 (about 600 rpm). The supernatant fluid is discarded and the pellet is resuspended in 10 ml of 0.87% ammonium chloride for exactly two minutes. This procedure is to lyse completely contaminating red blood cells. Leukocytes are then separated by centrifugation for ten minutes. The pellet is washed three times by suspension in 20 ml PBS (sodium chloride, 7.1 g; Na2 HPO4, 1.15 g; KH2 PO4,0.2 g, and KCl, 0.2 g/L) and centrifuged as before. The final pellet is suspended in PBS containing 0.87 mM CaCl2. Viability of the cells is then checked using trypan blue exclusion method and is found to be over 90%.
5-Lipoxygenase Enzyme Assay
Leukocyte cells in suspension (0.98 ml) are incubated with or without test compounds for five minutes at 37° C. in a shaking water bath. At this time a […] mixture is perpared per 1 ml of cell suspension: 100 mM arachidonic acid, 1 μl, 0.05 μCi ^14 C-arachidonic acid in 5 μl; 1 mM calcium ionophore A23187, 10 μl (1). This mixture is added and the incubation continued for five minutes. The reaction is stopped by adding four volumes of absolute ethanol and the mixture is kept in ice for 30 minutes. The floculated precipitate is separated by centrifugation at about 37,000×g for 20 minutes (Beckman Instruments rotor number 40). The alcohol extract is taken to dryness under a stream of nitrogen and the residue is dissolved in 100-200 μl absolute ethanol. At the time any turbidity is removed by centrifugation. An aliquot (25-50 μl) is applied onto 20×20 cm silica gel TLC plate and developed using the following solvent system: diethyl ether, petroleum ether (2040°C.),acetic acid (50:50: 1 v/v). Zones of 1 cm apart are scraped from the TLC plate and transferred to mini-vials. Methanol (0.5 ml) is added to dissolve the radioactivity adsorbed to the silica gel and scintillation fluid (H. P., Beckman), 5 ml is then added and vials are counted in a liquid scintillation counter. A sample of ^3 H-5-HETE is applied and used for the identification of the formed 5-HETE. Total radioactivity in the test as well as the control samples are normalized and the amount of 5-HETE present is calculated accordingly.
IC50 values are defined as the concentrations of test agents which caused a 50% inhibition of the formation of 5-HETE as compared to control and are determined by inspection of the concentration-response curves.

IC50: 500 nM
Compound: COc1ccc(CCc2ccc(NC(=O)c3ccc(C)cc3O)cc2)cc1OC [Example 46, N-[4-[2-(3,4-Dimethoxyphenyl)ethyl]phenyl]-2-hydroxy-4-methylbenzamide]
